Data published in patent EP4617278A1, “NUCLEOTIDE ANALOG, AND COMPOSITION AND USE THEREOF” (priority 2022, dated 2024).

Each compound was assayed on RSV A2 virus (assay: RSV CPE assay). Settings: human respiratory syncytial virus, HEp-2, 120 h, read-out: RSV A2 (Hep-2 cell) EC50.

With CCC(CC)COC(=O)[C@H](Cc1ccccc1)N[P@@](=O)(OCOC(=O)OC(C)C)OC[C@H]1O[C@@](C#N)(c2ccc3c(N)ncnn23)[C@H](OC(=O)C(C)C)[C@@H]1OC(=O)C(C)C [Compound 31b, (2R,3R,4R,5R)-2-(4-aminopyrrolo[2,1-f][1,2,4]triazin-7-yl)-2-cyano-5-((((S)-(((S)-1-(2-ethylbutoxy)-1-oxo-3-phenylpropan-2-yl)amino)(((isopropoxycarbonyl)oxy)methoxy)phosphoryl)oxy)methyl)tetrahydrofuran-3,4-diyl bis(2-methylpropionate)] as the compound, how does the EC50 read?
Its EC50 is 200 to 500 nM.

How did the EC50 turn out when CCC(CC)COC(=O)C1(N[P@@](=O)(OCOC(=O)OC(C)C)OC[C@H]2O[C@@](C#N)(c3ccc4c(N)ncnn34)[C@H](OC(=O)C(C)C)[C@@H]2OC(=O)C(C)C)CCC1 [Compound 32b, (2R,3R,4R,5R)-2-(4-aminopyrrolo[2,1-f][1,2,4]triazin-7-yl)-2-cyano-5-((((S)-((1-((2-ethylbutoxy)carbonyl)cyclobutyl)amino)(((isopropoxycarbonyl)oxy)methoxy)phosphoryl)oxy)methyl)tetrahydrofuran-3,4-diyl bis(2-methylpropionate)] was run?
Its EC50 is 500 to 1000 nM.

With CCCCCOC(=O)C[C@H](N[P@](=O)(OC[C@H]1O[C@@](C#N)(c2ccc3c(N)ncnn23)[C@H](OC(=O)C(C)C)[C@@H]1OC(=O)C(C)C)Oc1ccccc1)C(=O)OCCCCC [Compound 38b, (2R,3R,4R,5R)-2-(4-aminopyrrolo[2,1-f][1,2,4]triazin-7-yl)-2-cyano-5-((((S)-(((S)-1,4-dipentyloxy-1,4-dioxobutan-2-yl)amino)(phenoxy)phosphoryl)oxy)methyl)tetrahydrofuran-3,4-diyl bis(2-methylpropionate)] as the compound, how does the EC50 read?
Its EC50 is < 100 nM.

CCCCCOC(=O)C[C@H](N[P@@](=O)(OC[C@H]1O[C@@](C#N)(c2ccc3c(N)ncnn23)[C@H](OC(=O)C(C)C)[C@@H]1OC(=O)C(C)C)Oc1ccc(C(C)(C)C)cc1)C(=O)OCCCCC [Compound 39a, (2R,3R,4R,5R)-2-(4-aminopyrrolo[2,1-f][1,2,4]triazin-7-yl)-2-cyano-5-((((R)-(((S)-1,4-dipentyloxy-1,4-dioxobutan-2-yl)amino)(4-tert-butylphenoxy)phosphoryl)oxy)methyl)tetrahydrofuran-3,4-diyl bis(2-methylpropionate)] was tested. Which EC50 did it give?
The EC50 was < 100 nM.

With CCCCCOC(=O)C[C@H](N[P@](=O)(OC[C@H]1O[C@@](C#N)(c2ccc3c(N)ncnn23)[C@H](OC(=O)C(C)C)[C@@H]1OC(=O)C(C)C)Oc1ccc(C(C)(C)C)cc1)C(=O)OCCCCC [Compound 39b, (2R,3R,4R,5R)-2-(4-aminopyrrolo[2,1-f][1,2,4]triazin-7-yl)-2-cyano-5-((((S)-(((S)-1,4-dipentyloxy-1,4-dioxobutan-2-yl)amino)(4-tert-butylphenoxy)phosphoryl)oxy)methyl)tetrahydrofuran-3,4-diyl bis(2-methylpropionate)] as the compound, how does the EC50 read?
Its EC50 is < 100 nM.

How did the EC50 turn out when CCC(CC)COC(=O)[C@H](Cc1ccccc1)N[P@](=O)(OC[C@H]1O[C@@](C#N)(c2ccc3c(N)ncnn23)[C@H](OC(=O)C(C)C)[C@@H]1OC(=O)C(C)C)Oc1ccccc1 [Compound 41b, (2R,3R,4R,5R)-2-(4-aminopyrrolo[2,1-f][1,2,4]triazin-7-yl)-2-cyano-5-((((S)-(((S)-1-(2-ethylbutoxy)-1-oxo-3-phenylpropan-2-yl)amino)(phenoxy)phosphoryl)oxy)methyl)tetrahydrofuran-3,4-diyl bis(2-methylpropionate)] was run?
The EC50 was < 100 nM.

For CC(C)C(=O)O[C@H]1[C@@H](OC(=O)C(C)C)[C@](C#N)(c2ccc3c(N)ncnn23)O[C@@H]1CO[P@](=O)(N[C@@H](CC(=O)OC1CCC1)C(=O)OC1CCC1)Oc1ccccc1 [Compound 54a, (2R,3R,4R,5R)-2-(4-aminopyrrolo[2,1-f][1,2,4]triazin-7-yl)-2-cyano-5-((((R)-(((S)-1,4-dicyclobutoxy-1,4-dioxobutan-2-yl)amino)(phenoxy)phosphoryl)oxy)methyl)tetrahydrofuran-3,4-diyl bis(2-methylpropionate)], which EC50 is on record?
Its EC50 is 100 to 200 nM.

For CC(C)C(=O)O[C@H]1[C@@H](OC(=O)C(C)C)[C@](C#N)(c2ccc3c(N)ncnn23)O[C@@H]1CO[P@@](=O)(N[C@@H](CC(=O)OC1CCC1)C(=O)OC1CCC1)Oc1ccccc1 [Compound 54b, (2R,3R,4R,5R)-2-(4-aminopyrrolo[2,1-f][1,2,4]triazin-7-yl)-2-cyano-5-((((S)-(((S)-1,4-dicyclobutoxy-1,4-dioxobutan-2-yl)amino)(phenoxy)phosphoryl)oxy)methyl)tetrahydrofuran-3,4-diyl bis(2-methylpropionate)], which EC50 is on record?
Its EC50 is < 100 nM.

With CC(C)(C)C(=O)O[C@H]1[C@@H](OC(=O)C(C)(C)C)[C@](C#N)(c2ccc3c(N)ncnn23)O[C@@H]1CO[P@](=O)(N[C@@H](CC(=O)OC1CCC1)C(=O)OC1CCC1)Oc1ccccc1 [Compound 57a, (2R,3R,4R,5R)-2-(4-aminopyrrolo[2,1-f][1,2,4]triazin-7-yl)-2-cyano-5-((((R)-(((S)-1,4-dicyclobutoxy-1,4-dioxobutan-2-yl)amino)(phenoxy)phosphoryl)oxy)methyl)tetrahydrofuran-3,4-diyl bis(2,2-dimethylpropionate)] as the compound, how does the EC50 read?
Its EC50 is 500 to 1000 nM.

Which EC50 does the source give for CC(C)(C)C(=O)O[C@H]1[C@@H](OC(=O)C(C)(C)C)[C@](C#N)(c2ccc3c(N)ncnn23)O[C@@H]1CO[P@@](=O)(N[C@@H](CC(=O)OC1CCC1)C(=O)OC1CCC1)Oc1ccccc1 [Compound 57b, (2R,3R,4R,5R)-2-(4-aminopyrrolo[2,1-f][1,2,4]triazin-7-yl)-2-cyano-5-((((S)-(((S)-1,4-dicyclobutoxy-1,4-dioxobutan-2-yl)amino)(phenoxy)phosphoryl)oxy)methyl)tetrahydrofuran-3,4-diyl bis(2,2-dimethylpropionate)] here?
Its EC50 is 200 to 500 nM.

With CC(C)(C)C(=O)O[C@H]1[C@@H](OC(=O)C(C)(C)C)[C@](C#N)(c2ccc3c(N)ncnn23)O[C@@H]1CO[P@](=O)(N[C@H](C=O)CC(=O)OC1(C2CCCC2)CCCC1)Oc1ccccc1 [Compound 61a, (2R,3R,4R,5R)-2-(4-aminopyrrolo[2,1-f][1,2,4]triazin-7-yl)-2-cyano-5-((((R)-(((S)-1,4-bicyclopentyloxy-1,4-dioxobutan-2-yl)amino)(phenoxy)phosphoryl)oxy)methyl)tetrahydrofuran-3,4-diyl bis(2,2-dimethylpropionate)] as the compound, how does the EC50 read?
The EC50 was > 1000 nM.

Same assay, conditions: read-out: RSV A2 (Hep-2 cell) EC50; HEp-2 cells, RSV A2 virus, 5 days, CCK8

For CCC(CC)COC(=O)[C@H](Cc1ccccc1)N[P@@](=O)(OC[C@H]1O[C@@](C#N)(c2ccc3c(N)ncnn23)[C@H](OC(=O)C(C)C)[C@@H]1OC(=O)C(C)C)Oc1ccc(C(C)(C)C)cc1 [Compound 53a, (2R,3R,4R,5R)-2-(4-aminopyrrolo[2,1-f][1,2,4]triazin-7-yl)-2-cyano-5-((((((S)-1-(2-ethylbutoxy)-1-oxo-3-phenylpropan-2-yl)amino)((R)-4-tert-butylphenoxy)phosphoryl)oxy)methyl)tetrahydrofuran-3,4-diyl bis(2-methylpropionate)], which EC50 is on record?
Its EC50 is < 100 nM.

For CCC(CC)COC(=O)[C@H](Cc1ccccc1)N[P@](=O)(OC[C@H]1O[C@@](C#N)(c2ccc3c(N)ncnn23)[C@H](OC(=O)C(C)C)[C@@H]1OC(=O)C(C)C)Oc1ccc(C(C)(C)C)cc1 [Compound 53b, (2R,3R,4R,5R)-2-(4-aminopyrrolo[2,1-f][1,2,4]triazin-7-yl)-2-cyano-5-((((((S)-1-(2-ethylbutoxy)-1-oxo-3-phenylpropan-2-yl)amino)((S)-4-tert-butylphenoxy)phosphoryl)oxy)methyl)tetrahydrofuran-3,4-diyl bis(2-methylpropionate)], which EC50 is on record?
The EC50 was < 100 nM.
